The text below walks through data of patent publication US20240366598A1, “GLUCOSE-DEPENDENT INSULINOTROPIC POLYPEPTIDE RECEPTOR ANTAGONISTS AND USES THEREOF” (Pfizer Inc., priority 2023, published 2024).

The IC50 is the concentration that inhibits the measured activity by half.

The experiment deals with T1, human Glucose-dependent Insulinotropic Polypeptide Receptor (hGIPR) (Homo sapiens, UniProt P48546).
T1 sequence (P48546 22-466): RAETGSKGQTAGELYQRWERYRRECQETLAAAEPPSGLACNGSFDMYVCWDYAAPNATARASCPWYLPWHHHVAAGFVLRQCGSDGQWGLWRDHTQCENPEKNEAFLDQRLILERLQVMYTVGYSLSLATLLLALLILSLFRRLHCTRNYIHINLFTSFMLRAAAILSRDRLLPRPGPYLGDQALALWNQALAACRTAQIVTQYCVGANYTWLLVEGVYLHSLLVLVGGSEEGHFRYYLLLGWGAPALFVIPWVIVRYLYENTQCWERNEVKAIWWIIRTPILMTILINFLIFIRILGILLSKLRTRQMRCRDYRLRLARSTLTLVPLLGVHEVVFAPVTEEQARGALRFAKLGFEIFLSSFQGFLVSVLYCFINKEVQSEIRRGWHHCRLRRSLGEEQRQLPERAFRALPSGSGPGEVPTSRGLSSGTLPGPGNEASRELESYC
The experiment is described as follows: Functional in vitro GIPR antagonist potency assay (cAMP HTRF, CHO-K1 cells stably expressing hGIPR, hGIP stimulation at about EC80). Format: cell-based. As to conditions: geometric mean, hGIP at estimated EC80, examples marked ^2: overall geometric mean of multiple forms (including salts) tested. The protocol:
Example AA. Functional In Vitro GIPR Antagonist Potency Assay
The functional in vitro antagonist potency for test compounds was determined by monitoring intracellular cyclic adenosine monophosphate (cAMP) levels in Chinese hamster ovary (CHO)—K1 cells stably expressing the human Glucose-dependent Insulinotropic Polypeptide Receptor (hGIPR). Following agonist activation, hGIPR associates with the G-protein complex causing the Gαs subunit to exchange bound guanosine diphosphate (GDP) for guanosine triphosphate (GTP), followed by dissociation of the Gαs-GTP complex. The activated Gas subunit can couple to downstream effectors to regulate the levels of second messengers or cAMP within the cell. Thereby, determination of intracellular cAMP levels allows for pharmacological characterization. Intracellular cAMP levels are quantitated using a homogenous assay utilizing the Homogeneous Time Resolved Fluorescence (HTRF) technology from Perkin Elmer. […] The two entities compete for binding to a monoclonal anti-cAMP antibody labeled with cryptate. The specific signal is inversely proportional to the concentration of cAMP in the cells.
Test compounds were solubilized to a concentration of 30 mM in 100% dimethyl sulfoxide (DMSO). An 11-point dilution series using 1 in 3.162-fold serial dilutions was created in 100% DMSO with a top concentration of 8 mM. The serially diluted compound was spotted with an Echo Acoustic liquid handler (Beckman Coulter) into a 384-well assay plate (Corning, Cat No. 3824) at 50 nL/well with duplicate points at each concentration, at a 200× final assay concentration (FAC). The final compound concentration range in the assay was 40 μM to […], with a final DMSO concentration of 0.5%.
Frozen assay-ready vials (at 1×10^7 cells/vial) of CHO-K1 cells stably expressing the Gs-coupled human GIPR receptor (Eurofins, DiscoverX, Cat No. 95-0146C2) were thawed, counted, and resuspended in assay buffer consisting of Hank's Balanced Salt Solution (HBSS, Lonza Cat No. 10-527) containing 20 mM (4-(2-hydroxyethyl)-1-piperazineethanesulfonic acid (HEPES, Lonza, Cat No. 17-737E), 0.1% bovine serum albumin (BSA, Sigma, Cat No. A7979), and 200 μM 3-isobutyl-1-methylxanthine (IBMX, Sigma, Cat No. 15879) at a density of 4×10^5 cells/mL. Cells were added to assay plate (5 μL/well of 4×10^5 cells/mL stock for 2,000 cells/well final) containing 50 nL of 200× FAC test compound, and incubated at 37° C. (95% O2: 5% CO2) for 2 hours, with micro-clime lids (Labcyte, Cat No. LLS-0310). Following the 2-hour cell and compound incubation, a stimulation mix comprised of hGIPR agonist human glucose-dependent insulinotropic polypeptide (hGIP, full length, Sigma Cat No. G2269) in assay buffer/0.1% DMSO was added to the assay plate (5 μL/well) at an estimated EC80 FAC (based on previous hGIP agonist curves) and incubated for another 30 minutes with micro-clime lids at 37° C. (95% O2: 5% CO2), after which intracellular cAMP levels were quantified as per Perkin Elmer's protocol (5 μL of d2 and then 5 μL cryptate, incubated for 1 hour at room temperature). Emission spectra of samples were measured on a Pherastar plate reader (BMG Labtech Inc) using a HTRF protocol (excitation, 320 nm; emission, 665 nm/620 nm).
(95% O2: 5% CO2), with a micro-clime lid. Following the 2-hour cell and DMSO incubation, a hGIP concentration response curve at 2× FAC (12-point curve using 1 in 3 serial dilutions, with triplicate points at each concentration, 100 nM final top concentration) in assay buffer/1% DMSO was added (5 μL/well) and incubated for a further 30 minutes with a micro-clime lid at 37° C. (95% O2: 5% CO2), after which intracellular cAMP levels were quantified and samples measured as described previously. Experiments passed quality control if the agonist concentration used for stimulation fell between the on-the-day EC50-EC90. […]
As for `Cc1cc(NC(=O)N2CCC[C@@H]2C(=O)Nc2ccc(-c3ccc(C(=O)O)nc3)cc2)ccc1C(F)(F)F` [Example 17, 5-{4-[(1-{[3-Methyl-4-(trifluoromethyl)phenyl]carbamoyl}-D-prolyl)amino]phenyl}pyridine-2-carboxylic acid], the half-inhibitory concentration (IC50) is 14 nM.

For `CC(C)c1ccc(NC(=O)N2CCC[C@@H]2C(=O)Nc2ccc(-c3ccc(C(=O)O)cc3)nc2)cc1` [Example 18, 4-{5-[(1-{[4-(Propan-2-yl)phenyl]carbamoyl}-D-prolyl)amino]pyridin-2-yl}benzoic acid], the IC50 was 15 nM.

As to `Cc1cc(NC(=O)N2CCC[C@@H]2C(=O)Nc2ccc(-c3ccc(C(=O)O)nc3)cc2)ccc1C(C)C` [Example 19, 5-{4-[(1-{[3-Methyl-4-(propan-2-yl)phenyl]carbamoyl}-D-prolyl)amino]phenyl}pyridine-2-carboxylic acid], the IC50 is 11 nM.

For the compound `Cc1nc(C(=O)O)ccc1-c1ccc(NC(=O)[C@H]2CCCN2C(=O)Nc2ccc(C(C)C)cc2)cc1` [Example 20, 6-Methyl-5-{4-[(1-{[4-(propan-2-yl)phenyl]carbamoyl}-D-prolyl)amino]phenyl}pyridine-2-carboxylic acid], the IC50 is 12 nM.

Regarding `COc1cc(-c2ccc(NC(=O)[C@H]3CCCN3C(=O)Nc3ccc(C(C)C)cc3)cc2)ccc1C(=O)O` [Example 21, 3-Methoxy-4′-[(1-{[4-(propan-2-yl)phenyl]carbamoyl}-D-prolyl)amino][1,1′-biphenyl]-4-carboxylic acid], the 50% inhibitory concentration (IC50) was 11 nM.

Take `O=C(O)c1ccc(-c2ccc(NC(=O)[C@H]3CCCN3C(=O)Nc3ccc(C(F)(F)F)cc3)cn2)cc1` [Example 22, 4-{5-[(1-{[4-(Trifluoromethyl)phenyl]carbamoyl}-D-prolyl)amino]pyridin-2-yl}benzoic acid]: the IC50 is 62 nM.

For `O=C(O)c1ccc(-c2ccc(NC(=O)[C@H]3CCCN3C(=O)Nc3ccc(C4CCC4)cc3)cc2)cc1` [Example 23, 4′-({1-[(4-Cyclobutylphenyl)carbamoyl]-D-prolyl}amino)[1,1′-biphenyl]-4-carboxylic acid], the IC50 is 2.7 nM.

For the compound `O=C(O)c1ccc(-c2cnc(NC(=O)[C@H]3CCCN3C(=O)Nc3ccc(C(F)(F)F)cc3)c(F)c2)cc1` [Example 24, 4-{5-Fluoro-6-[(1-{[4-(trifluoromethyl)phenyl]carbamoyl}-D-prolyl)amino]pyridin-3-yl}benzoic acid], the IC50 is 110 nM.

For `CC(C)c1ccc(NC(=O)N2CCC[C@@H]2C(=O)Nc2ncc(-c3ccc(C(=O)O)cc3)cc2F)cc1` [Example 25, 4-{5-Fluoro-6-[(1-{[4-(propan-2-yl)phenyl]carbamoyl}-D-prolyl)amino]pyridin-3-yl}benzoic acid], the IC50 was 86 nM.

With `O=C(O)c1ccc(-c2ccc(NC(=O)[C@H]3CCCN3C(=O)Nc3ccc(C4CC4)c(C(F)(F)F)c3)cc2)cc1` [Example 26, 4′-[(1-{[4-Cyclopropyl-3-(trifluoromethyl)phenyl]carbamoyl}-D-prolyl)amino][1,1′-biphenyl]-4-carboxylic acid], the IC50 was 2.1 nM.

For the compound `Cc1nc(C(=O)O)ccc1-c1ccc(NC(=O)[C@H]2CCCN2C(=O)Nc2ccc(C(C)C)c(F)c2)cc1` [Example 27, 5-{4-[(1-{[3-Fluoro-4-(propan-2-yl)phenyl]carbamoyl}-D-prolyl)amino]phenyl}-6-methylpyridine-2-carboxylic acid], the IC50 is 4.8 nM.

On to `CC(C)c1ccc(NC(=O)N2CCC[C@@H]2C(=O)Nc2ccc(-c3ccc(C(=O)O)c(F)c3)cc2)cc1` [Example 28, 3-Fluoro-4′-[(1-{[4-(propan-2-yl)phenyl]carbamoyl}-D-prolyl)amino][1,1′-biphenyl]-4-carboxylic acid], for which the IC50 is 10 nM.

Consider `COc1cc(C(=O)O)ccc1-c1ccc(NC(=O)[C@H]2CCCN2C(=O)Nc2ccc(C(C)C)cc2)cc1` [Example 29, 2-Methoxy-4′-[(1-{[4-(propan-2-yl)phenyl]carbamoyl}-D-prolyl)amino][1,1′-biphenyl]-4-carboxylic acid], for which the IC50 was 17 nM.

Take `COc1cc(-c2ccc(NC(=O)[C@H]3CCCN3C(=O)Nc3ccc(C(C)C)c(C)c3)cc2)ccc1C(=O)O` [Example 30, 3-Methoxy-4′-[(1-{[3-methyl-4-(propan-2-yl)phenyl]carbamoyl}-D-prolyl)amino][1,1′-biphenyl]-4-carboxylic acid]: the IC50 is 5.7 nM.

Turning to `O=C(O)c1ccc(-c2ccc(NC(=O)[C@H]3CCCN3C(=O)Nc3ccc(C(F)(F)F)cc3)nc2)cc1` [Example 31, 4-{6-[(1-{[4-(Trifluoromethyl)phenyl]carbamoyl}-D-prolyl)amino]pyridin-3-yl}benzoic acid], the 50% inhibitory concentration (IC50) was 7.8 nM.

For `COc1cc(-c2ccc(NC(=O)[C@H]3CCCN3C(=O)Nc3ccc(C(C)C)c(F)c3)cc2)ccc1C(=O)O` [Example 32, 4′-[(1-{[3-Fluoro-4-(propan-2-yl)phenyl]carbamoyl}-D-prolyl)amino]-3-methoxy[1,1′-biphenyl]-4-carboxylic acid], the IC50 was 6.1 nM.

On to `CC(C)c1ccc(NC(=O)N2CCC[C@@H]2C(=O)Nc2cnc(-c3ccc(C(=O)O)cc3)c(F)c2)cc1` [Example 33, 4-{3-Fluoro-5-[(1-{[4-(propan-2-yl)phenyl]carbamoyl}-D-prolyl)amino]pyridin-2-yl}benzoic acid], for which the IC50 is 6.3 nM.

`CO[C@@H]1C[C@H](C(=O)Nc2ccc(-c3ccc(C(=O)O)cc3)cc2)N(C(=O)Nc2ccc(C(C)C)cc2)C1` [Example 36, 4′-{[(4R)-4-Methoxy-1-{[4-(propan-2-yl)phenyl]carbamoyl}-D-prolyl]amino}[1,1′-biphenyl]-4-carboxylic acid]: the IC50 was 46 nM.

In the case of `CC(C)c1ccc([C@H](C)NC(=O)N2CCC[C@@H]2C(=O)Nc2ccc(-c3ccc(C(=O)O)cc3)cc2)cc1` [Example 37, 4′-{[1-({(1S)-1-[4-(Propan-2-yl)phenyl]ethyl}carbamoyl)-D-prolyl]amino}[1,1′-biphenyl]-4-carboxylic acid], the IC50 was 58 nM.

For the compound `O=C(O)c1cccc(-c2ccc(NC(=O)[C@H]3CCCN3C(=O)Nc3ccc(C4CCC4)cc3)nc2)c1` [Example 38, 3-[6-({1-[(4-Cyclobutylphenyl)carbamoyl]-D-prolyl}amino)pyridin-3-yl]benzoic acid], the IC50 is 17 nM.

As for `Cc1cc(NC(=O)N2CCC[C@@H]2C(=O)Nc2ccc(-c3ccc(C(=O)O)cc3)cc2)ccc1C(C)C` [Example 39, ammonium 4′-[(1-{[3-methyl-4-(propan-2-yl)phenyl]carbamoyl}-D-prolyl)amino][1,1′-biphenyl]-4-carboxylate], the IC50 is 3.7 nM.

As for `Cc1cc(-c2ccc(NC(=O)[C@H]3CCCN3C(=O)Nc3ccc(C(C)C)cc3)cc2)ccc1C(=O)O` [Example 40, 3-methyl-4′-[(1-{[4-(propan-2-yl)phenyl]carbamoyl}-D-prolyl)amino][1,1′-biphenyl]-4-carboxylic acid], the 50% inhibitory concentration (IC50) is 7.3 nM.
